Active and inactive are the calls of the source.
Legend:
Prothrombin [1] = target: Prothrombin (Homo sapiens, UniProt P00734); assay: Thrombin 1536 HTS Dose Response Confirmation. [Related pubchem assays: 1046 (Thrombin 1536 HTS; hits were confirmed in this assay)]; assay type: functional
[2] = target: T1, Carboxy-terminal domain RNA polymerase II polypeptide A small phosphatase 1 (Homo sapiens, UniProt Q9GZU7); assay: inhibitors of CTDSP1, concentration-response testing, biochemical assay, absorbance-based, actives from ultra-high-throughput screening (AID 540297); assay type: functional
T1 sequence (Q9GZU7 whole entry): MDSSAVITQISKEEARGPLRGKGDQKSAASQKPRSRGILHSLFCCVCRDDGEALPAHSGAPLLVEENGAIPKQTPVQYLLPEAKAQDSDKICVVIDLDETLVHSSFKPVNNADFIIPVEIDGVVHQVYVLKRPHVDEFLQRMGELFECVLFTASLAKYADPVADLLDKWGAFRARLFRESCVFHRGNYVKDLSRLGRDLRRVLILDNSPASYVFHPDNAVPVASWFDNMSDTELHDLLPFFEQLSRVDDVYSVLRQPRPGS

Prothrombin [3] = target: Prothrombin (Bos taurus, UniProt P00735); assay: thrombin inhibition, dose response, biochemical, fluorescence polarization, uHTS hits (AID 602369); assay type: functional
[4] = target: 26S proteasome non-ATPase regulatory subunit 14 (Homo sapiens, UniProt O00487); assay: inhibition of proteasome subunit RPN11 – biochemical, fluorescence polarization, uHTS hits, confirmation (AID 602368); assay type: functional
[5] = target: 72 kDa type IV collagenase (Homo sapiens, UniProt P08253); assay: Dose Response validation of uHTS RPN11 inhibitor hits using a MMP-2 Fluorescence assay.; assay type: functional
[6] = off-target signal loss in HeLa-CEM21 co-culture – HeLa F-luc CTL cells, cherry-picked, counter-screen for HIV-1 Env fusion inhibitor project, dose response (AID 652040); assay type: functional, cell-based;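 note: potency for signal decrease marking cytotoxic or nonspecific inhibition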
[7] = inhibitors of clade B AD8 Env fusion, dose response, cell-based, cherry-pick (AID 652062); assay type: functional;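 note: luciferase signal from cell-cell fusion driven by HIV-1 clade B AD8 Env; potency is for inhibitors of fusion seen as a drop in luminescence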
P388/ADR = assay: cells; assay type: functional; settings: Mus musculus
SN12K1 = assay: cells; assay type: functional; settings: Homo sapiens
P388 = assay: cells; assay type: functional; settings: Mus musculus
[8] = target: T2, RNA-binding protein pos-1 (Caenorhabditis elegans, UniProt G5EF15); assay: inhibitors of POS-1/mex-3 RNA binding, dose response, biochemical, fluorescence polarization (AID 1964);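 note: purified POS-1 fused to maltose binding protein made in E. coli; potency of compounds blocking POS-1 binding to fluorescent RNA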
T2 sequence (G5EF15 whole entry): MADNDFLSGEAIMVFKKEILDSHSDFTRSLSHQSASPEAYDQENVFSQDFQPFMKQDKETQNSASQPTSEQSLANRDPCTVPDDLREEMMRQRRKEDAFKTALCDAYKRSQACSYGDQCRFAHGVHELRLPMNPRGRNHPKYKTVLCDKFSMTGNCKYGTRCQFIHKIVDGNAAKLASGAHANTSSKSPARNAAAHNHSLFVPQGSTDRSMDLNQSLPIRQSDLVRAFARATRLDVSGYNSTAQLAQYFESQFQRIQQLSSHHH

[9] = microbe, parasite or virus in culture; assay type: functional; settings: Mycobacterium tuberculosis
[10] = target: T3, Zinc finger protein mex-5 (Caenorhabditis elegans, UniProt Q9XUB2); assay: MEX-5/TCR-2 RNA interaction inhibitors, dose response, biochemical, C. elegans, fluorescence polarization (AID 1960)
T3 sequence (Q9XUB2 whole entry): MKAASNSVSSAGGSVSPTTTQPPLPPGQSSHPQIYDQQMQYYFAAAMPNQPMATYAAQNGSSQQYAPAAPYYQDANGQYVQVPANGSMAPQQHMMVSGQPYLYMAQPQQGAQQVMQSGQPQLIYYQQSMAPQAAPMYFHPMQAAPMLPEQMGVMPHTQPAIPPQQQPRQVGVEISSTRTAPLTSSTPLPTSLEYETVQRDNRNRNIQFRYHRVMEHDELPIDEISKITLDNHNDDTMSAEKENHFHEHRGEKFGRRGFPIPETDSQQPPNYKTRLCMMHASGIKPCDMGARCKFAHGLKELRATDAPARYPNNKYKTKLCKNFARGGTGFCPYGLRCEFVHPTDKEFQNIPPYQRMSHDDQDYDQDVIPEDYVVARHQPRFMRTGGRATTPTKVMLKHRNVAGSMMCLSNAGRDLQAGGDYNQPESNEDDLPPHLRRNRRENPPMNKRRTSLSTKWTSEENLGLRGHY

Nonstructural protein 1 = Nonstructural protein 1 (Influenza A virus, UniProt Q194T2); assay type: functional, Influenza A virus (A/California/07/2009(H1N1))
[11] = A cytotoxicity screen of small molecule inhibitors of the PhoP region in Salmonella typhi identified in the primary screen. [Related pubchem assays: 1850, 1864, 1985 ]; assay type: functional
Streptococcus = assay: Group A Streptococcus viability loss, dose response, counter-screen for streptokinase expression inhibitor project, luminescence, BacTiterGlo (AID 1915); assay type: functional, organism-based;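 note: potency for reduction of bacterial viability or growth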
Leucine aminopeptidase = target: T4, Leucine aminopeptidase (Plasmodium falciparum 3D7, UniProt Q8IL11); assay: P. falciparum M17LAP inhibitors, primary screen, biochemical, fluorogenic H-Leu-NHMec substrate, 1536-well (AID 1619); assay type: functional
T4 sequence (Q8IL11 whole entry): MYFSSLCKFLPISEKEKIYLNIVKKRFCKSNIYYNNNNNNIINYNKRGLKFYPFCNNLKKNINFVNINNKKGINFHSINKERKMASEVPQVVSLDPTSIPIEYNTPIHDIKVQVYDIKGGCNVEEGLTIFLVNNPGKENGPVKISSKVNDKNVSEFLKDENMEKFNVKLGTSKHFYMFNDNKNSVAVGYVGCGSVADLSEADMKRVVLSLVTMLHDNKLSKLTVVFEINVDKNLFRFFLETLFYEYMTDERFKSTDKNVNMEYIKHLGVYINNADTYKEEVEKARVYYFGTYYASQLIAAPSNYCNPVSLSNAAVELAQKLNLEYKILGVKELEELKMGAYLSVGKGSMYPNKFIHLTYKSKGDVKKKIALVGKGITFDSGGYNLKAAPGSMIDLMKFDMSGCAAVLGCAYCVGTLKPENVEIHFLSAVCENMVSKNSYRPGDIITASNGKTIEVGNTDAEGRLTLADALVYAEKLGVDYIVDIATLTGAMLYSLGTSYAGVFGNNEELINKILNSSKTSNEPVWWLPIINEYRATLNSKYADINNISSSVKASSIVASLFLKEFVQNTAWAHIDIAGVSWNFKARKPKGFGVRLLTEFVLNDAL

[12] = tested on: Streptococcus sp. 'group A'; assay: growth inhibition of control SK(-) GAS strain, dose response, counter-screen for streptokinase expression inhibitor project, luminescence, kanamycin, BacTiterGlo, confirmation (AID 1900); assay type: functional, organism-based

Sequence of 26S proteasome non-ATPase regulatory subunit 14 (O00487 whole entry): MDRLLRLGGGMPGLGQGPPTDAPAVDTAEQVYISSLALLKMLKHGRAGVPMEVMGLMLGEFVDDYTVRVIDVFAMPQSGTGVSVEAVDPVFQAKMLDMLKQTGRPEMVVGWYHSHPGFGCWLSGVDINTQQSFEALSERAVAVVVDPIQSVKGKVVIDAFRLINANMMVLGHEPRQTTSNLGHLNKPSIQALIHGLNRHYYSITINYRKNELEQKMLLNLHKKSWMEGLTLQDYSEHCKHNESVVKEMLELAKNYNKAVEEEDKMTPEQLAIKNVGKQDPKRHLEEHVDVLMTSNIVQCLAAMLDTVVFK
Sequence of 72 kDa type IV collagenase (P08253 whole entry, the tested form may be a part): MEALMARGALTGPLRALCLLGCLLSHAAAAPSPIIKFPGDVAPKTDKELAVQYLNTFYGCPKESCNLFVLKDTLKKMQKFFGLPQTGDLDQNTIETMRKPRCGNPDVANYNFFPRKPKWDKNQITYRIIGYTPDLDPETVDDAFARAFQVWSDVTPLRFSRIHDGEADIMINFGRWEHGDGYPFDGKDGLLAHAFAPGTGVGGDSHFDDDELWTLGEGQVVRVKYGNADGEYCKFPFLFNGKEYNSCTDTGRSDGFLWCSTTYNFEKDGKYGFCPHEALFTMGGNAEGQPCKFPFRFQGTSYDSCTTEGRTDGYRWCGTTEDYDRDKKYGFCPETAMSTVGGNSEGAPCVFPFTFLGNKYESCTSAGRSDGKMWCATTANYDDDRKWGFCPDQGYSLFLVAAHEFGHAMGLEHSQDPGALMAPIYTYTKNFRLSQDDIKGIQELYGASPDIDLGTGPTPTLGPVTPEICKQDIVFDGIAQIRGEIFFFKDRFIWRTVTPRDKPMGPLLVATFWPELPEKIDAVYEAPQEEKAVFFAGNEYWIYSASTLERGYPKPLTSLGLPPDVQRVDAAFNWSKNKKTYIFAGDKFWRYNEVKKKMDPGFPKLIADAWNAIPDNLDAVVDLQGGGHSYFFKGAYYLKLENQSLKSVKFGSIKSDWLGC
Sequence of Nonstructural protein 1 (Q194T2 whole entry): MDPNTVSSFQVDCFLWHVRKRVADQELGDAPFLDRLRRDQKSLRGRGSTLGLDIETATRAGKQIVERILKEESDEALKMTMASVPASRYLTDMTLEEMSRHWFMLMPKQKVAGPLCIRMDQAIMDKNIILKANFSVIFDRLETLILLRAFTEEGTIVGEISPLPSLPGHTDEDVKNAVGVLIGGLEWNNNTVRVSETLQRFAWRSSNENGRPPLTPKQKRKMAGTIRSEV

With CC(=O)OCC1(C)CN(c2ccccc2)N(C(=O)c2ccc(C(C)(C)C)cc2)C1=O (stereo not drawn) the IC50 (Prothrombin [1]) was 18 µM (active).

In the case of C[N@+]12CC[C@H](CC1)C(=C(c1ccccc1)c1ccccc1)C2, the IC50 [2] is reported as 3.04 µM (active).

For C=CCCC(=O)N1C[C@H]2CON(C)[C@H]2C[C@H]1c1ccc(N2CCCCC2)cc1, the IC50 (Prothrombin [3]) was 57.2 µM (active), the IC50 [4] was 52.2 µM (active) and the IC50 [5] was > 100 µM (inactive).

For COC(c1ccccc1)c1nnc(CCC(=O)N(C)Cc2cccc(-n3cccn3)c2)o1 (stereo not drawn), the IC50 (Prothrombin [1]) was > 50 µM (not active).

In the case of COc1cc(S(=O)(=O)N2CCOCC2)ccc1NC(=O)COC(=O)c1ccccn1, the IC50 (Prothrombin [1]) is reported as 0.545 µM (active).

In the case of CCOC(=O)CSC1=N/C(=C/c2ccc(-n3cncn3)cc2)C(=O)N1C(C)=O, the IC50 (Prothrombin [1]) is reported as 0.942 µM (active).

In the case of Cn1cccc1C(=O)OCC(=O)NCCc1ccc(S(N)(=O)=O)cc1, the AC50 [6] is reported as > 70 µM (inactive) and the AC50 [7] is reported as 7.13 µM (active).

With COc1nc(C(Cl)(Cl)Cl)c(Cl)c(OC)c1Cl [PENCLOMEDINE] the GI50 (P388/ADR) was 40.6 µM (inactive), the GI50 (SN12K1) was 28.3 µM (inactive) and the GI50 (P388) was 8.61 µM (inactive).

For C=CCN1C(=O)/C(=C\Nc2cccc([N+](=O)[O-])c2)C(=O)N(CCCC)C1=O, the IC50 (Prothrombin [3]) was 42.7 µM (active), the IC50 [4] was 34 µM (active) and the IC50 [5] was > 100 µM (inactive).

For N=c1c(C(=O)NC2CCCCC2)cc2c(=O)n3ccccc3nc2n1Cc1ccc(F)cc1, the EC50 [8] was > 300 µM (not active), the CC50 [9] was > 40 µM (active) and the EC50 [10] was 13.3 µM (active).

With CO[C@H]1CN(C)C(=O)c2cc(NC(=O)C3CCOCC3)ccc2OC[C@H](C)N(Cc2nccs2)C[C@H]1C the AC50 [6] was 43.3 µM (active) and the AC50 [7] was 24.9 µM (active).

In the case of Cc1cc(N2CCN(C3CCCCC3)CC2)nc2cccc(O)c12, the IC50 (Nonstructural protein 1) is reported as > 100 µM (active) and the EC50 [11] is reported as > 50 µM (active).

For COc1ccc(NC(=O)Cn2c(-c3ccc(OC)cc3)cn(-c3ccc(C)cc3)c2=O)cc1, the IC50 (Prothrombin [3]) was 48.5 µM (active), the IC50 [4] was 35.2 µM (active) and the IC50 [5] was > 100 µM (inactive).

For O=C(CCCN1CCC(C(O)c2ccc(F)cc2)CC1)c1ccc(F)cc1 (stereo not drawn), the GI50 (P388/ADR) was 46.1 µM (inactive), the GI50 (SN12K1) was 56.4 µM (inactive) and the GI50 (P388) was 38.3 µM (inactive).

For Nc1ccc2cc(S(=O)(=O)O)cc(O)c2c1/N=N/c1ccc(NC(=O)Nc2ccc(/N=N/c3c(N)ccc4cc(S(=O)(=O)O)cc(O)c34)c(S(=O)(=O)O)c2)cc1S(=O)(=O)O, the GI50 (P388/ADR) was 95.5 µM (inactive), the GI50 (SN12K1) was > 100 µM (inactive) and the GI50 (P388) was 45.2 µM (inactive).

For Cc1nnc(SCC2=C(C(=O)O)N3C(=O)C(NC(=O)Cn4nc(C(F)F)c(Cl)c4C)C3SC2)s1 (stereo not drawn), the EC50 (Streptococcus) was 0.228 µM (active), the IC50 (Leucine aminopeptidase) was 13.9 µM (active) and the EC50 [12] was < 0.06 µM (active).

With COC(=O)c1ccc(NC(S)=NNC(=O)c2ccccc2)cc1 the EC50 [11] was > 50 µM (active).

For O=C1CN(CC(=O)N2CCCCC2)c2ccccc2O1, the CC50 [9] was 38.6 µM (active).

With O=C(COC(=O)c1cncc(Br)c1)Nc1nnc(-c2ccccc2)o1 the IC50 [2] was 6.29 µM (active).

— ChEMBL document CHEMBL1201862, “PubChem BioAssay data set” (2004)
